# Several values for one entry are separate records, joined by “and”; a condition that tells them apart may be missing. Equal values may be shown once.
# Tested on: urethra/internal sphincter
# Assay: Urethral perfusion pressure, vesicular pressure and external sphincter EMG in anaesthetised female rats
# Type: in vivo, rat
# Experimental: Female Sprague-Dawley rats (225–350 g) were anaesthetised using urethane. The bladder was exposed through a midline incision into the abdomen and intravesicular pressure was recorded via a catheter inserted into the bladder. A second catheter was inserted into the bladder to allow infusion of saline using a syringe pump when required. A third catheter was inserted into the bladder and wedged into position in the neck of the bladder with the catheter extending into the urethra. This set-up allowed constant infusion of saline into the urethra whilst urethral pressure was recorded. Changes in urethral pressure are assumed to reflect changes in urethral resistance. In each animal, electromyographic (EMG) recordings were made of urethral striated muscle activity by inserting 2 fine copper electrodes either side of the urethral opening.
# Once stable, bladder and urethral pressures were recorded, the bladder was inflated by direct infusion of physiological saline into the bladder at a rate of 0.046 ml/min. This rate approximates the maximum hourly diuresis rate. Infusion into the bladder was terminated prior to evoking micturition and the bladder volume maintained. During and after saline infusion, simultaneous recordings were made of urethral perfusion pressure and of external sphincter EMG activity. Once these parameters had stabilised, autonomic drive to the lower urinary tract was inhibited by administration of hexamethonium (10 mg/kg i.v.) and changes to urethral perfusion pressure and external sphincter EMG recorded. Decamethonium (30 mg/kg i.v.) was then added to remove striated muscle activity. In one group of animals, prior to intravesicular infusion of saline a single bolus dose of MCI-225 was administered (3 mg/kg i.v.). In a second group of animals a bolus dose of vehicle was administered. The effect of MCI-225 and vehicle was determined by analysing the changes in urethral perfusion pressure and external sphincter EMG activity during and after infusion and following administration of the ganglion blocker hexamethonium and then finally decamethonium to block the striated muscle activity of the external sphincter.
compound,measurement,setting,value
"Cc1cc2c(-c3ccccc3F)nc(N3CCNCC3)nc2s1.Cl.O [MCI-225, 4-(2-Fluorophenyl)-6-methyl-2-(1-piperazinyl)thieno[2,3-D]pyrimidine monohydrate hydrochloride]",Effect on tone of the urethra/internal sphincter,"3 mg/kg i.v., anaesthetised female rats",increased the tone of the urethra/internal sphincter
same,"Decrease in urethral perfusion pressure after decamethonium, from values before hexamethonium","3 mg/kg i.v., after hexamethonium 10 mg/kg i.v. then decamethonium 30 mg/kg i.v., vehicle 44±4%",64±7%
same,Fall in external sphincter activity (EUS-EMG) after hexamethonium,"3 mg/kg i.v., after hexamethonium 10 mg/kg i.v., compared with vehicle-treated animals",Larger falls
same,Drop in urethral perfusion pressure after hexamethonium,"3 mg/kg i.v., after hexamethonium 10 mg/kg i.v., vehicle 35±7%",55±5%
same,Increase in urethral pressure from baseline,"3 mg/kg i.v., baseline vs after intravesicular infusion, p=0.04 Students t test, vehicle 29%",77%
same,Vesicular pressure (VP) after intravesicular infusion,"anaesthetized female rats, after intravesicular saline infusion, 3 mg kg^-1 i.v., n=3",8 ± 1 mmHg
same,Urethral perfusion pressure (UP) after intravesicular infusion,"anaesthetized female rats, after intravesicular saline infusion, 3 mg kg^-1 i.v., n=3, monohydrate hydrochloride",23±2 mmHg
same,Baseline urethral perfusion pressure (UP),"anaesthetized female rats, baseline before intravesicular infusion, 3 mg kg^-1 i.v., n=3, monohydrate hydrochloride",13±1 mmHg and 13 ± 2 mmHg

# Source: patent US7220748B2, “Use of 4-(2-Flurophenyl)-6-methyl-2-(1-piperazinyl)thieno(2,3-D)-pyrimidine for treating of urinary incontinence” (Arachnova Therapeutics Ltd., priority 2002, dated 2007)
